How the values were obtained:
CFA-hindpaw inflammation = assay: CFA-hindpaw inflammation, paw pressure test (CFA-PPT), intraperitoneal injection; assay type: in vivo, rat; settings: ip; Lidocaine dose range 10 mg/kg to 46.4 mg/kg, Diclofenac dose range 21.5 mg/kg to 100 mg/kg
Procedure: An interaction study was performed as a single dose study in the CFA-hindpaw inflammation, paw pressure test.
In comparative example 1 and inventive examples 1 to 4 described below, a compound or combination of compounds was administered by intraperitoneal injection (FIGS. 1 to 9).
(§1) The pain was measured by pressing a pointer on the inflamed paw. The pointer exerts a force, increasing at a constant rate, monitored by a linear scale. Pain is deemed to be perceived one the rat starts to withdraw the paw. This value (withdrawal threshold in gram) is the pressure at which the animal feels pain (cut-off 450 g). Efficacy of the test compounds is expressed as a percent change of withdrawal threshold after compound administration to the pre-value (withdrawal threshold before compound administration).

[1] = tested on: CFA-induced paw edema / mechanical-hyperalgesia; assay: CFA-hindpaw inflammation, paw pressure test (CFA-PPT), topical application to the paw as ointment or solution; assay type: in vivo, male albino rats; settings: Lidocaine 30 mg/ml to 60 mg/ml, Diclofenac 40 mg/ml to 80 mg/ml
Procedure: In comparative example 2 and inventive examples 5 to 8 as described below, a compound or combination of compounds was administered topically to the paw by means of an ointment or solution (FIGS. 10 to 18).
The efficacy was tested when a compound or a compositions of compounds was administered topically as an ointment or a solution. The study was performed on male albino rats (150-180 g body weight) to which an edema of paw was induced by injection of Complete Freunds Adjuvant (CFA). CFA is a composition of inactivated and dried Myobacteria tuberculoses, emulsified in mineral oil which is used as an immunopotentiator causing a painful reaction that lasts 7-8 days after subcutaneous injection.
The studies of comparative example 2 and inventive examples 5 to 8 were performed according to the following procedure: 50 μL of CFA were injected sub plantar into the right hind paw, inducing mechanical-hyperalgesia after 24 hours. […]
as §1, with “Pain is deemed to be perceived one the rat starts to withdraw the paw. This value (withdrawal threshold in gram) is the pressure at which the animal feels pain (cut-off 450 g).” left out

Structure (SMILES) | efficacy when administered alone (CFA-hindpaw inflammation) | efficacy when topically administered alone [1]
O=C(O)Cc1ccccc1Nc1c(Cl)cccc1Cl [Diclofenac, 2-(2,6-dichloranilino) phenylacetic acid] | dose dependent efficacy | dose dependent efficacy
CCN(CC)CC(=O)Nc1c(C)cccc1C [Lidocaine, 2-(diethylamino)-N-(2,6-dimethylphenyl)acetamide] | dose dependent efficacy | dose dependent efficacy
